Data from US20020164266A1, “Microbicidal mixtures” (priority 2001, published 2002).

Columns and labels:
Type in all cases: cell-based
Pseudomonas fluorescens = experiment: Synergism (BNPD/MIT), MIC values for Pseudomonas fluorescens; conditions: read-out: MIC values for Pseudomonas fluorescens
Source text: (§1) The mixtures according to the invention have synergistic activity. The observed synergism can be determined by the following mathematical equation (see F. C. Kull, P. C. Elisman, H. D. Sylwestrowicz and P. K. Mayer, Appl. Microbiol. 9, 538 (1961): [formula]
(§2) Qa=the amount of component A in the active compound mixture which achieves the desired effect, i.e. no microbial growth.
(§3) QA=the amount of component A which, when used on its own, suppresses the growth of the microorganisms.
(§4) Qb=the amount of component B in the active compound mixture which suppresses the growth of the micoorganisms.
(§5) QB=the amount of component B which, when used on its own, suppresses the growth of the microorganisms.
(§6) A synergistic index of SI<1 indicates a synergistic effect for the mixture in question. […] All parts and percentages are by weight unless otherwise indicated.
Test pathogen: Pseudomonas fluorescens
(§7) In brackets=mixing ratios of the pure active compounds

Bacillus subtilis = experiment: Synergism (BNPD/MIT), MIC values for Bacillus subtilis; conditions: read-out: MIC values for Bacillus subtilis
Source text: as §1, §2, §3, §4, §5, §6
Test pathogen: Bacillus subtilis
as §7

Pseudomonas aeruginosa = experiment: Synergism (BNPD/MIT), MIC values for Pseudomonas aeruginosa; conditions: read-out: MIC values for Pseudomonas aeruginosa
Source text: as §1, §2, §3, §4, §5, §6
Test pathogen: Pseudomonas aeruginosa
as §7

SMILES | MIC (Pseudomonas fluorescens) | MIC (Bacillus subtilis) | MIC (Pseudomonas aeruginosa)
O=[N+]([O-])C(Br)(CO)CO [BNPD, 2-bromo-2-nitropropanediol] | 10 µg/mL | 10 µg/mL | 10 µg/mL
Cn1sccc1=O [MIT, 2-methyl-2H-isothiazol-3-one] | 10 µg/mL | 25 µg/mL | 10 µg/mL
